Data from patent publication US20220296573A1, “NOVEL COMPOUNDS AND PHARMACEUTICAL COMPOSITIONS THEREOF FOR THE TREATMENT OF INFLAMMATORY DISORDERS” (Galapagos NV, priority 2019, published 2022).
Values after ≈ are worked out from the molar mass of the structure shown. Where two headings read alike, the source gives them in different places.

Legend:
[1] = Thermodynamic solubility; assay type: physicochemical; conditions: for solubility thermodynamic at 24 h: 37 °C, thermodynamic from solid
Method: In a 8 mL glass vial, 1-2 mg of dry matter of compound were added and stirred with the suitable buffers (Fed State Simulated Intestine Fluid, FeSSIF, or Fasted State Simulated Intestine Fluid, FaSSIF, or Fasted State Simulated Gastric Fluid, FaSSGF, or phosphate buffer pH 7.4) for 24 h at r.t. (for the buffer pH 7.4) or 37° C. (for the GI fluids). The concentration of the mixture was 1 mg/mL.
A volume of 1000 μL were sampled, centrifuged for 10 min at 10 000 rpm and 500 μL of the supernatant were filtered on captiva plate. The samples are diluted in duplicates in DMSO (F100 and F10). Then, a final dilution (F100) in 80/20 H2O/MeCN containing the internal standard (warfarin) was used for LCMS-MS analysis.
A standard curve was made starting from a 40,000 ng/mL stock in DMSO, freshly prepared from dry matter. Then, successive concentrations at 15,000, 11,000, 6,000, 2,500, 1,000, 375, 150 and 75 ng/mL in DMSO were prepared.
Three quality control samples were made: one of 10,000, 1,500 and 200 ng/mL in DMSO, also starting from the DMSO working stock solution at 40,000 ng/mL.
The standard curve and quality controls were diluted a F100 in 80/20 H2O/MeCN (with internal standard) and analyzed on LC/MS-MS (API4000 or API5500).
The samples were analyzed on LC-MS with a flow rate of 0.6 mL/min. The mobile phase A was 0.1% formic acid in water and the mobile phase B was 0.1% formic acid in 90% MeCN and 10% of water. The sample was run under positive or negative ion spray on Pursuit C18—5 μm (2.0×20 mm) column, from Agilent.
The ratio analyte/internal standard peaks areas of the standard curve were plotted in a graph and a linear or polynomial of the second order equation was used to calculate the unknown concentrations of the test compound.
Solubility values were reported in μM and g/mL.

[2] = test system: Mouse Hepatocyte; assay: Metabolic stability in mouse hepatocytes; assay type: in vitro ADME; conditions: mouse cryopreserved hepatocytes, 1 μM
Method: (§1) The aim of this assay is to determine the metabolic stability of the compound in hepatocytes (cryopreserved) of different species. Low hepatocyte stability may result in the formation of unwanted metabolites, high clearance, and therefore is not desirable.
(§2) A 10 mM stock solution of test compound in DMSO was first diluted in DMSO to 3 mM, and then in modified Krebs-Henseleit buffer (Sigma, K3753) to 5 μM. This compound dilution was added to a suspension of pooled cryopreserved hepatocytes (BioreclamationIVT) at 37° C. under gentle shaking.
(§3) Final reaction conditions were: 1 μM of test compound, 0.03% DMSO, 0.5 million viable hepatocytes/mL, and 75 μL incubation volume.
(§4) Testosterone (1 μM) and 7-hydroxycoumarin (1 μM) were used, respectively as phase I and phase II metabolic reaction controls.
(§5) After 0, 10, 20, 45, 90, 120 and 180 min of incubation, the reaction was terminated with 225 μL of MeCN:MeOH (2:1) containing 100 ng/mL of diclofenac as analytical internal standard. Samples were mixed, centrifuged and the supernatant analyzed by LC-MS/MS.
(§6) The instrument responses (ratios of test compound and internal standard peak areas) were referenced to the zero time point samples (considered as 100%) in order to determine the percentage of compound remaining.
(§7) Plots of percentage compound remaining were used to determine the intrinsic clearance in the hepatocyte incubations using the following equations:
(§8) Scaled Clint [L/h/kg]=Clint [μL/min/10^6 cells]*#(10) cells/g liver*60*(1/10^6) Scaled Clint unbound [L/h/kg]=Clint [L/h/kg]/Fu,inc where: fu,inc equals hepatocyte binding, derived from microsomal binding (fu,mic) by following equation: […]

[3] = test system: CL097 triggered TNFα release in human whole blood; assay: Ex vivo human TNFα release inhibition (whole blood assay); assay type: cell-based; conditions: CL097 2 μg/mL, 3 h 30 min
Text: The aim of the assay is to evaluate the activity of compounds of the invention on the activated TLR/IRAK-4 pathway in an ex vivo human whole blood setting. Toll-like receptors (TLRs) are pattern recognition receptors that recognize a wide variety of microbial molecules, called pathogen-associated molecular patterns (PAMPs). Human TLR7 and TLR8 recognize imidazoquinoline compounds (e.g., CL097—CAS n #1026249-18-2) and single stranded RNAs as their natural ligands. Activation of TLRs leads to the production of several cytokines (e.g., IFNα, TNFα, IL-8, IL-6) by the TLR agonist-treated cells, whereas IRAK4 leads to the production of IFNα. Cytokine release is used as readout in this assay and represents a measure for the level of inhibition of the TLR/IRAK-4 pathway by the tested compound. It should be noted that in the context of the complete organism, other sources for these cytokines exist that are not dependent on the TLR/IRAK-4 pathway, such as e.g., macrophages (upon activation of the Fcγ receptor (Yan et al. 2012)) or T cells (upon activation of the T cell receptor (Brehm, Daniels, and Welsh 2005)).
Blood is collected from healthy volunteers into lithium heparin tubes by venipuncture, then gently inverted several times to prevent clotting and incubated for at least 15 min at 37° C. on a rocking mixer shaker. Then, 100 μL of blood is dispensed into polypropylene 96-well microplate and pre-incubated in duplicate with 0.3% DMSO or test compound at different concentrations (from 30 to 0.01 μM, 3-fold dilutions to get 0.3% DMSO at the final) for 15 min at 37° C. After this pre-incubation, blood is triggered with CL097 (2 μg/mL from 1 mg/mL solution in water; InvivoGen, tlr1-c97) for 3 h 30 min at 37° C. Microtubes are centrifuged at 5000×g for 10 min at 4° C. and approximately 40 μL of plasma are collected into a polystyrene 96-well plate. Plasma can be analyzed freshly, within 30 min after triggering, or frozen at −80° C. Finally, the quantification of IFNα and IFNα were performed in the plasma using AlphaLISA Kit for […] according to the manufacturer's instructions and read on the Ensight (PerkinElmer).
For each blood sample, the TNFα concentrations of the samples were determined from the fit. Data were then expressed as a percentage of inhibition (PIN) for each replicate using the formula:
With mean TNFα with CL097=mean TNFα concentration of replicate samples triggered with CL097; TNFαsample1=TNFα concentration of sample 1; mean TNFα with vehicle=mean TNFα concentration of replicate samples treated with vehicle.
Curve fitting for pIC50 determination were generated using mean PIN±sem. Graphs and pIC50 calculations were derived using Prism 5.03 software (GraphPad).

[4] = test system: Human Hepatocyte; assay: Metabolic stability in human hepatocytes; assay type: in vitro ADME; conditions: human cryopreserved hepatocytes, 1 μM
Method: as §1, §2, §3, §4, §5, §6, §7, §8

[5] = Fasted State Simulated Gastric Fluid (FaSSGF), fassgf or other biorelevant, Fasted State Simulated Gastric Fluid, read-out: Tsol FaSSGF
[6] = Fasted State Simulated Intestine Fluid, 24 h, 37° C.
[7] = Fed State Simulated Intestine Fluid (FeSSIF), fessif, Fed State Simulated Intestine Fluid, read-out: Tsol FeSSIF
[8] = Fasted State Simulated Intestine Fluid (FaSSIF), fassif, Fasted State Simulated Intestine Fluid, read-out: Tsol FaSSIF

Structure (SMILES) | solubility thermodynamic at 24 h [1, 5] [µg/mL] | Tsol FaSSIF [1, 6] | solubility thermodynamic at 24 h [1, 7] [µg/mL] | solubility thermodynamic at 24 h [1, 8] [µg/mL] | Mouse Hepatocyte stability (Perc. remaining at 90 min) [2] [Perc.] | IC50 [3] [nM] | Human Hepatocyte stability (Perc. remaining at 90 min) [4] [Perc.] | other results
COc1cc2nc(C3COCCO3)cn2cc1NC(=O)c1cccn(C2CC2)c1=O (single isomer, unassigned) [Compound 8, 1-cyclopropyl-N-[2-(1,4-dioxan-2-yl)-7-methoxy-imidazo[1,2-a]pyridin-6-yl]-2-oxo-pyridine-3-carboxamide] | 1000 (≈ 2440 µM) | 67.4 µg/mL | 208 (≈ 507 µM) | – | – | – | – | –
COc1cc2nc(C3CCOCC3)cn2cc1NC(=O)c1cccn(C2CC2)c1=O [Compound 3, (1-cyclopropyl-N-[7-methoxy-2-(oxan-4-yl)imidazo[1,2-a]pyridin-6-yl]-2-oxopyridine-3-carboxamide)] | 947 (≈ 2320 µM) | – | – | 1010 (≈ 2480 µM) | – | – | – | –
NC(=O)c1cc2nc(C3COCCO3)cn2cc1NC(=O)c1cccc(C(F)(F)F)n1 (centres unmarked) [Compound 6, 2-(1,4-dioxan-2-yl)-6-[[6-(trifluoromethyl)pyridine-2-carbonyl]amino]imidazo[1,2-a]pyridine-7-carboxamide] | – | 2.30, 2.30 μg/mL | – | – | – | – | – | –
COc1cc2nc(C3CCOCC3)cn2cc1NC(=O)c1cccc(C(F)(F)F)n1 [Compound 2, N-(7-methoxy-2-tetrahydropyran-4-yl-imidazo[1,2-a]pyridin-6-yl)-6-(trifluoromethyl)pyridine-2-carboxamide] | 1020 (≈ 2430 µM) | – | – | 19.3 (≈ 45.9 µM) | – | – | – | –
CC(F)(F)c1cccc(C(=O)Nc2cn3cc(C4COCCO4)nc3cc2C(N)=O)n1 (centres unmarked) [Compound 11, 6-(6-(1,1-difluoroethyl)picolinamido)-2-(1,4-dioxan-2-yl)imidazo[1,2-a]pyridine-7-carboxamide] | 335 (≈ 777 µM) | – | – | 12.2 (≈ 28.3 µM) | 80.6 | 0.1 to 500 | 99.15 | –
COc1cc2nc(C3CCS(=O)(=O)CC3)cn2cc1NC(=O)c1cccn(C2CC2)c1=O [Compound 23, 1-cyclopropyl-N-(2-(1,1-dioxidotetrahydro-2H-thiopyran-4-yl)-7-methoxyimidazo[1,2-a]pyridin-6-yl)-2-oxo-1,2-dihydropyridine-3-carboxamide] | – | – | 270 (≈ 591 µM) | – | – | 0.1 to 500 | – | –
COc1cc2nc(C3COCCO3)cn2cc1NC(=O)c1cccn(C2CCC2)c1=O (centres unmarked) [Compound 5, 1-cyclobutyl-N-[2-(1,4-dioxan-2-yl)-7-methoxy-imidazo[1,2-a]pyridin-6-yl]-2-oxo-pyridine-3-carboxamide] | – | – | – | 43.9 (≈ 103 µM) | – | 1000 to 5000 | – | –
COc1cc2nc(C3COCCO3)cn2cc1NC(=O)c1cccn(C2CC2)c1=O (racemic) [Compound 1, 1-cyclopropyl-N-[2-(1,4-dioxan-2-yl)-7-methoxy-imidazo[1,2-a]pyridin-6-yl]-2-oxo-pyridine-3-carboxamide] | > 1000 | – | > 1000 | 28.2 (≈ 68.7 µM) | 103.95 | 0.1 to 500 | 101.5 | –
CNC(=O)c1cc2nc(C3COCCO3)cn2cc1NC(=O)c1cccc(C(F)(F)F)n1 (centres unmarked) [Compound 9, 2-(1,4-dioxan-2-yl)-N-methyl-6-(6-(trifluoromethyl)picolinamido)imidazo[1,2-a]pyridine-7-carboxamide] | – | – | – | 6.42 (≈ 14.3 µM) | 73.3 | – | 92.1 | –
COc1cc2nc(C3COCCO3)cn2cc1NC(=O)c1cccn(C2CC2)c1=O (single isomer, unassigned) [Compound 7, 1-cyclopropyl-N-[2-(1,4-dioxan-2-yl)-7-methoxy-imidazo[1,2-a]pyridin-6-yl]-2-oxo-pyridine-3-carboxamide] | – | 31.6 µg/mL | – | – | – | – | – | Tsol FaSSGF ([1]; Fasted State Simulated Gastric Fluid, 24 h, 37° C.): 958 µg/mL; Tsol FeSSIF ([1]; Fed State Simulated Intestine Fluid, 24 h, 37° C.): 117 µg/mL
